From PubChem BioAssay (NCI)
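96-well plates; 48 h exposure; 5 concentrations. Endpoints by linear interpolation between flanking doses. Not reached: highest tested concentration assigned. The concentration for 50% growth inhibition is given as GI50. TGI denotes the concentration required for complete inhibition of growth.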

Columns and labels:
Test in all cases: inhibition of tumour cell growth, NCI panel, 48 h
SF-268 CNS = tested on: SF-268 CNS
NCI/ADR-RES ovarian = tested on: NCI/ADR-RES ovarian
SN12C renal = tested on: SN12C renal
HCT-116 colon = tested on: HCT-116 colon
KM12 colon = tested on: KM12 colon
COLO 205 colon = tested on: COLO 205 colon
PC-3 prostate = tested on: PC-3 prostate
OVCAR-3 ovarian = tested on: OVCAR-3 ovarian
HS 578T breast = tested on: HS 578T breast
HOP-62 NSCLC = tested on: HOP-62 NSCLC
A498 renal = tested on: A498 renal
786-0 renal = tested on: 786-0 renal
SK-MEL-5 melanoma = tested on: SK-MEL-5 melanoma
MDA-MB-435 = tested on: MDA-MB-435
SK-OV-3 ovarian = tested on: SK-OV-3 ovarian
CCRF-CEM leukemia = tested on: CCRF-CEM leukemia
HL-60(TB) leukemia = tested on: HL-60(TB) leukemia
OVCAR-8 ovarian = tested on: OVCAR-8 ovarian
TK-10 renal = tested on: TK-10 renal
SNB-19 CNS = tested on: SNB-19 CNS
RPMI-8226 leukemia = tested on: RPMI-8226 leukemia
MALME-3M melanoma = tested on: MALME-3M melanoma
HCT-15 colon = tested on: HCT-15 colon
SF-539 CNS = tested on: SF-539 CNS
SK-MEL-28 melanoma = tested on: SK-MEL-28 melanoma
IGROV1 ovarian = tested on: IGROV1 ovarian
SW-620 colon = tested on: SW-620 colon
SK-MEL-2 melanoma = tested on: SK-MEL-2 melanoma
SR leukemia = tested on: SR leukemia
NCI-H23 lung = tested on: NCI-H23 lung
EKVX NSCLC = tested on: EKVX NSCLC
UACC-257 melanoma = tested on: UACC-257 melanoma
SNB-75 CNS = tested on: SNB-75 CNS
NCI-H460 lung = tested on: NCI-H460 lung
OVCAR-5 ovarian = tested on: OVCAR-5 ovarian
NCI-H522 lung = tested on: NCI-H522 lung
ACHN renal = tested on: ACHN renal
UACC-62 melanoma = tested on: UACC-62 melanoma
HT29 colon = tested on: HT29 colon
M14 melanoma = tested on: M14 melanoma
NCI-H226 lung = tested on: NCI-H226 lung
MCF7 breast = tested on: MCF7 breast
K-562 leukemia = tested on: K-562 leukemia
CAKI-1 renal = tested on: CAKI-1 renal
HOP-92 NSCLC = tested on: HOP-92 NSCLC
LOX IMVI melanoma = tested on: LOX IMVI melanoma
MOLT-4 leukemia = tested on: MOLT-4 leukemia
SF-295 CNS = tested on: SF-295 CNS
RXF 393 renal = tested on: RXF 393 renal
MDA-MB-231 breast = tested on: MDA-MB-231 breast
T-47D breast = tested on: T-47D breast
OVCAR-4 ovarian = tested on: OVCAR-4 ovarian
HCC-2998 colon = tested on: HCC-2998 colon
UO-31 renal = tested on: UO-31 renal
A549 NSCLC = tested on: A549 NSCLC
U251 CNS = tested on: U251 CNS
BT-549 breast = tested on: BT-549 breast
DU-145 prostate = tested on: DU-145 prostate

With `CC(CNC(Cc1ccccc1)c1ccccc1)NC(Cc1ccccc1)c1ccccc1` (stereo unspecified) the GI50 (SF-268 CNS) was 3.6 µM, the TGI (SF-268 CNS) was 14.3 µM and the GI50 (NCI/ADR-RES ovarian) was 1.83 µM. It also gave a TGI (NCI/ADR-RES ovarian) of 4.17 µM, a GI50 (SN12C renal) of 2.22 µM and a TGI (SN12C renal) of 6.38 µM. The GI50 (HCT-116 colon) was 1.37 µM, the TGI (HCT-116 colon) was 2.86 µM and the GI50 (KM12 colon) was 2.36 µM. It also gave a TGI (KM12 colon) of 5.85 µM, a GI50 (COLO 205 colon) of 1.66 µM and a TGI (COLO 205 colon) of 3.46 µM. The GI50 (PC-3 prostate) was 2.3 µM, the TGI (PC-3 prostate) was 6.42 µM and the GI50 (OVCAR-3 ovarian) was 2.07 µM. For the same compound, the TGI (OVCAR-3 ovarian) was 4.56 µM, the GI50 (HS 578T breast) was 2.64 µM and the TGI (HS 578T breast) was 8.27 µM. For the same compound, the GI50 (HOP-62 NSCLC) was 3.41 µM, the TGI (HOP-62 NSCLC) was 12.4 µM and the GI50 (A498 renal) was 2.26 µM. The TGI (A498 renal) was 5.02 µM, the GI50 (786-0 renal) was 1.67 µM and the TGI (786-0 renal) was 3.36 µM. The GI50 (SK-MEL-5 melanoma) was 1.79 µM, the TGI (SK-MEL-5 melanoma) was 3.23 µM and the GI50 (MDA-MB-435) was 2.1 µM. The TGI (MDA-MB-435) was 4.99 µM, the GI50 (SK-OV-3 ovarian) was 5.34 µM and the TGI (SK-OV-3 ovarian) was 16.8 µM. For the same compound, the GI50 (CCRF-CEM leukemia) was 2.74 µM, the TGI (CCRF-CEM leukemia) was 7.84 µM and the GI50 (HL-60(TB) leukemia) was 2 µM. For the same compound, the TGI (HL-60(TB) leukemia) was 4.51 µM, the GI50 (OVCAR-8 ovarian) was 2.6 µM and the TGI (OVCAR-8 ovarian) was 6.17 µM. It also gave a GI50 (TK-10 renal) of 3.22 µM, a TGI (TK-10 renal) of 12.5 µM and a GI50 (SNB-19 CNS) of 3.19 µM. It also gave a TGI (SNB-19 CNS) of 13.5 µM, a GI50 (RPMI-8226 leukemia) of 2.23 µM and a TGI (RPMI-8226 leukemia) of 4.88 µM. It also gave a GI50 (MALME-3M melanoma) of 1.68 µM, a TGI (MALME-3M melanoma) of 3.36 µM and a GI50 (HCT-15 colon) of 2 µM. The TGI (HCT-15 colon) was 4.87 µM, the GI50 (SF-539 CNS) was 1.93 µM and the TGI (SF-539 CNS) was 3.69 µM. It also gave a GI50 (SK-MEL-28 melanoma) of 2.84 µM, a TGI (SK-MEL-28 melanoma) of 7.81 µM and a GI50 (IGROV1 ovarian) of 2.76 µM. The TGI (IGROV1 ovarian) was 10.5 µM, the GI50 (SW-620 colon) was 2.75 µM and the TGI (SW-620 colon) was 8.53 µM. The GI50 (SK-MEL-2 melanoma) was 2.18 µM, the TGI (SK-MEL-2 melanoma) was 4.28 µM and the GI50 (SR leukemia) was 1.84 µM. For the same compound, the TGI (SR leukemia) was 4.49 µM, the GI50 (NCI-H23 lung) was 1.94 µM and the TGI (NCI-H23 lung) was 4.46 µM. It also gave a GI50 (EKVX NSCLC) of 2.47 µM, a TGI (EKVX NSCLC) of 9.16 µM and a GI50 (UACC-257 melanoma) of 2.67 µM. For the same compound, the TGI (UACC-257 melanoma) was 6.9 µM, the GI50 (SNB-75 CNS) was 2.07 µM and the TGI (SNB-75 CNS) was 11.7 µM. It also gave a GI50 (NCI-H460 lung) of 2.03 µM, a TGI (NCI-H460 lung) of 4.06 µM and a GI50 (OVCAR-5 ovarian) of 2.73 µM. It also gave a TGI (OVCAR-5 ovarian) of 8.76 µM, a GI50 (NCI-H522 lung) of 1.63 µM and a TGI (NCI-H522 lung) of 3.5 µM. It also gave a GI50 (ACHN renal) of 2.93 µM, a TGI (ACHN renal) of 8.85 µM and a GI50 (UACC-62 melanoma) of 1.8 µM. For the same compound, the TGI (UACC-62 melanoma) was 3.8 µM, the GI50 (HT29 colon) was 1.97 µM and the TGI (HT29 colon) was 4.04 µM. For the same compound, the GI50 (M14 melanoma) was 1.79 µM, the TGI (M14 melanoma) was 3.6 µM and the GI50 (NCI-H226 lung) was 1.94 µM. It also gave a TGI (NCI-H226 lung) of 4.09 µM, a GI50 (MCF7 breast) of 2.08 µM and a TGI (MCF7 breast) of 5.16 µM. The GI50 (K-562 leukemia) was 2.48 µM, the TGI (K-562 leukemia) was 6.41 µM and the GI50 (CAKI-1 renal) was 2.16 µM. For the same compound, the TGI (CAKI-1 renal) was 7.45 µM, the GI50 (HOP-92 NSCLC) was 1.83 µM and the TGI (HOP-92 NSCLC) was 4.09 µM. The GI50 (LOX IMVI melanoma) was 1.62 µM, the TGI (LOX IMVI melanoma) was 2.98 µM and the GI50 (MOLT-4 leukemia) was 2.06 µM. It also gave a TGI (MOLT-4 leukemia) of 6.03 µM, a GI50 (SF-295 CNS) of 1.52 µM and a TGI (SF-295 CNS) of 3.27 µM. It also gave a GI50 (RXF 393 renal) of 1.66 µM, a TGI (RXF 393 renal) of 3.19 µM and a GI50 (MDA-MB-231 breast) of 1.81 µM. The TGI (MDA-MB-231 breast) was 3.7 µM, the GI50 (T-47D breast) was 1.96 µM and the TGI (T-47D breast) was 4.95 µM. For the same compound, the GI50 (OVCAR-4 ovarian) was 2.59 µM, the TGI (OVCAR-4 ovarian) was 10.6 µM and the GI50 (HCC-2998 colon) was 2.03 µM. It also gave a TGI (HCC-2998 colon) of 4.45 µM, a GI50 (UO-31 renal) of 1.87 µM and a TGI (UO-31 renal) of 6.06 µM. The GI50 (A549 NSCLC) was 4.18 µM, the TGI (A549 NSCLC) was 15 µM and the GI50 (U251 CNS) was 2.59 µM. The TGI (U251 CNS) was 7.37 µM, the GI50 (BT-549 breast) was 2.01 µM and the TGI (BT-549 breast) was 5.16 µM. The GI50 (DU-145 prostate) was 3.95 µM and the TGI (DU-145 prostate) was 14.7 µM.
